Broadly, the IC50 is the concentration at which inhibition is half-maximal. Low readings indicate inhibition by little substance, high ones a need for much substance. For orientation: inhibition means the drop in the measured response relative to a control, in per cent. A higher inhibition goes with a response far below the control.

Series [1] deals with p38 MAPKα (MAPK14) (Homo sapiens (Human), UniProt Q16539). The series is described as follows: p38 MAPKα enzyme inhibition (Method 2), Z-LYTE FRET. The class given is biochemical. On the procedure: (§1) The enzyme inhibitory activities of compounds disclosed herein are determined by FRET using synthetic peptides labelled with both donor and acceptor fluorophores (Z-LYTE, Invitrogen Ltd., Paisley, UK).
Sequence of p38 MAPKα (MAPK14) (Q16539 whole entry): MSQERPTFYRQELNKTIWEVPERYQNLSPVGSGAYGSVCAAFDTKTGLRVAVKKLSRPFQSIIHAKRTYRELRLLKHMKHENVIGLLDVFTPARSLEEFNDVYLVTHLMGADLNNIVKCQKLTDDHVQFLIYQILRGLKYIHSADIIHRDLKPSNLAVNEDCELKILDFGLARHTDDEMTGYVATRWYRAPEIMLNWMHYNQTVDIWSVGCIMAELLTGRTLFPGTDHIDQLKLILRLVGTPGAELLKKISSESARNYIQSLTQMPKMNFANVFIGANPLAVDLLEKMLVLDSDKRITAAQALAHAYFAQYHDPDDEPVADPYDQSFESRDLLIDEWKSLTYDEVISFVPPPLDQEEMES
The following two assay variants can be used for determination of p38 MAPKα inhibition.
The inhibitory activities of test compounds against the p38 MAPKα isoform (MAPK14: Invitrogen) are evaluated indirectly by determining the level of activation/phosphorylation of the down-stream molecule, MAPKAP-K2. The p38 MAPKα protein (80 ng/mL, 2.5 μL) is mixed with the test compound (2.5 μL of either 4 μg/mL, 0.4 μg/mL, 0.04 μg/mL or 0.004 μg/mL) for 2 hr at RT. […] The mixture is incubated for 1 hr at RT. Development reagent (protease, 5 μL) is added for 1 hr prior to detection in a fluorescence microplate reader (Varioskan® Flash, ThermoFisher Scientific).
This method follows the same steps as Method 1 above, but utilises a higher concentration of the p38 MAPKα protein (2.5 μL of 200 ng/mL protein instead of 2.5 μL of 80 ng/mL protein) for mixing with the test compound (tested at either 1 μg/mL, 0.1 μg/mL, 0.01 μg/mL or 0.001 μg/mL).
(§2) In all cases, the site-specific protease cleaves non-phosphorylated peptide only and eliminates the FRET signal. Phosphorylation levels of each reaction are calculated using the ratio of coumarin emission (donor) over fluorescein emission (acceptor), for which high ratios indicate high phosphorylation and low ratios indicate low phosphorylation levels.

In series [2] the target is c-Src (Homo sapiens (Human), UniProt P12931). The series is described as follows: c-Src enzyme inhibition, Z-LYTE FRET. Type of series: biochemical. On the procedure:
as §1
The inhibitory activities of compounds of the invention against c-Src and Syk enzymes (Invitrogen), are evaluated in a similar fashion to that described hereinabove. The relevant enzyme (3000 ng/mL or 2000 ng/mL respectively, 2.5 μL) is incubated with the test compound (either 1 μg/mL, 0.1 μg/mL, 0.01 μg/mL, or 0.001 μg/mL, 2.5 μL each) for 2 hr at RT. The FRET peptides (8 μM, 2.5 μL), and appropriate ATP solutions (2.5 μL, 800 μM for c-Src, and 60 μM ATP for Syk) are then added to the enzymes/compound mixtures and the mixture incubated for 1 hr. Development reagent (protease, 5 μL) is added for 1 hr prior to detection in a fluorescence microplate reader (Varioskan® Flash, ThermoFisher Scientific).
as §2

The target of series [3] is Syk (Homo sapiens (Human), UniProt P43405). Briefly: Syk enzyme inhibition, Z-LYTE FRET. Type of series: biochemical. On the procedure:
as §1
The relevant enzyme (3000 ng/mL or 2000 ng/mL respectively, 2.5 μL) is incubated with the test compound (either 1 μg/mL, 0.1 μg/mL, 0.01 μg/mL, or 0.001 μg/mL, 2.5 μL each) for 2 hr at RT. The FRET peptides (8 μM, 2.5 μL), and appropriate ATP solutions (2.5 μL, 800 μM for c-Src, and 60 μM ATP for Syk) are then added to the enzymes/compound mixtures and the mixture incubated for 1 hr. Development reagent (protease, 5 μL) is added for 1 hr prior to detection in a fluorescence microplate reader (Varioskan® Flash, ThermoFisher Scientific).
as §2

In series [4] the test system is mitosis in PBMCs. The series is described as follows: (g) Cell mitosis assay. The class given is cell-based. The settings on record: Homo sapiens, PBMC, 5 μg/mL. On the procedure: Peripheral blood mononucleocytes (PBMCs) from healthy subjects are separated from whole blood (Quintiles, London, UK) using a density gradient (Histopaque®-1077, Sigma-Aldrich, Poole, UK). The PBMCs (3 million cells per sample) are subsequently treated with 2% PHA (phytohaemagglutinin, Sigma-Aldrich, Poole, UK) for 48 hr, followed by a 20 hr exposure to varying concentrations of test compounds. At 2 hr before collection, PBMCs are treated with demecolcine (0.1 μg/mL; Invitrogen, Paisley, UK) to arrest cells in metaphase. To observe mitotic cells, PBMCs are permeabilized and fixed by adding Intraprep (50 μL; Beckman Coulter, France), and stained with anti-phospho-histone 3 ([…]; #9701; Cell Signalling, Danvers, Mass.) and propidium iodide (1 mg/mL; Sigma-Aldrich, Poole, UK) as previously described (Muehlbauer P. A. and Schuler M. J., Mutation Research, 2003, 537:117-130). Fluorescence is observed using an ATTUNE flow cytometer (Invitrogen, Paisley, UK), gating for lymphocytes.

For series [5], the system named is Jurkat cells. The series is described as follows: (r) Cell cytotoxicity assay. Type of series: cell-based, human. The settings on record: 24 hours. In short, it runs like this: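 Jurkat cells (1×10^5/well, RPMI + 10% FBS) exposed to compound at 20, 5 or 1 μg/mL final (1.0% DMSO control) for 24 h at 37° C., 5% CO2. Then stained with 7.5 μg/mL propidium iodide for 15 min. % viability = PI-negative cells by flow cytometry, normalized to DMSO.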

Sequence of c-Src (P12931 whole entry, looked up): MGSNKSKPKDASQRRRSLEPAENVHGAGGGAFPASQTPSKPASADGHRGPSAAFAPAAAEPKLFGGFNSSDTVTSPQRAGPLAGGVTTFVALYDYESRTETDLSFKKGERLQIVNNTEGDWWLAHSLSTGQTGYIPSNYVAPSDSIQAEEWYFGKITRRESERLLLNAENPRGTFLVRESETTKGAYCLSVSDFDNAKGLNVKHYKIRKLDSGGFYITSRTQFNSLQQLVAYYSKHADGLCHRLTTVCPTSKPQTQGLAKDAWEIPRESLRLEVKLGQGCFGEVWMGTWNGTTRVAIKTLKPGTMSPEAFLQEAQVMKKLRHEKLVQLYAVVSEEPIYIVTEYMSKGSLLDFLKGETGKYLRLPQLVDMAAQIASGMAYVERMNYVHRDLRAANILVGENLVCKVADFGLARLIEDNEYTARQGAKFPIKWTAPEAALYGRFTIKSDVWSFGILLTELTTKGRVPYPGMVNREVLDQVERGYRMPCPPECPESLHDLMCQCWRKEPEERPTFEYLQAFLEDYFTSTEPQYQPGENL

For `COc1cc(Nc2cc(Oc3ccc(NC(=O)Nc4cc(C(C)(C)C)cc(NS(C)(=O)=O)c4OC)c4ccccc34)ccn2)ccc1C(=O)N[C@@H](C)CN1CCOCC1` [17(v), 4-[[4-[[4-[[5-tert-butyl-3-(methanesulfonamido)-2-methoxy-phenyl]carbamoylamino]-1-naphthyl]oxy]-2-pyridyl]amino]-2-methoxy-N-[(1S)-1-methyl-2-morpholino-ethyl]benzamide], the IC50 in series [1] came to 0.116 µM; in series [2] it was 0.043 µM; in series [3], 0.232 µM. Moreover, in series [4], at 5 µg/mL the inhibition was 34.4%.
For the compound `COc1cc(Nc2cc(Oc3ccc(NC(=O)Nc4cc(C(C)(C)C)cc(NS(C)(=O)=O)c4OC)c4ccccc34)ccn2)ccc1C(=O)NCCN(C)CCO` [17(ac), 4-[[4-[[4-[[5-tert-butyl-3-(methanesulfonamido)-2-methoxy-phenyl]carbamoylamino]-1-naphthyl]oxy]-2-pyridyl]amino]-N-[2-[2-hydroxyethyl(methyl)amino]ethyl]-2-methoxy-benzamide], at 5 µg/mL the inhibition in series [4] was 85.8%.
On to `COc1cc(Nc2cc(Oc3ccc(NC(=O)Nc4cc(C(C)(C)C)cc(NS(C)(=O)=O)c4OC)c4ccccc34)ccn2)ccc1C(=O)NCCCN1CCCOCC1` [17(aj), 4-[[4-[[4-[[5-tert-butyl-3-(methanesulfonamido)-2-methoxy-phenyl]carbamoylamino]-1-naphthyl]oxy]-2-pyridyl]amino]-2-methoxy-N-[3-(1,4-oxazepan-4-yl)propyl]benzamide], for which the half-maximal inhibitory concentration (IC50) was 0.012 µM in series [2] and 0.033 µM in series [3]. Moreover, in series [4], the inhibition at 5 µg/mL stood at 94.9%.
Turning to `COCCN(C)CCNC(=O)c1ccc(Nc2cc(Oc3ccc(NC(=O)Nc4cc(C(C)(C)C)cc(NS(C)(=O)=O)c4OC)c4ccccc34)ccn2)cc1OC` [17(ad), 4-[[4-[[4-[[5-tert-butyl-3-(methanesulfonamido)-2-methoxy-phenyl]carbamoylamino]-1-naphthyl]oxy]-2-pyridyl]amino]-2-methoxy-N-[2-[2-methoxyethyl(methyl)amino]ethyl]-benzamide], the inhibition at 5 µg/mL in series [4] worked out at 93.4%. In series [5], the “% Viability at 1 μg/mL” value turned out to be 101.4%, the “% Viability at 5 μg/mL” value worked out at 6.3% and the “% Viability at 20 μg/mL” value amounted to 0.4%.
In series [4], `COc1cc(Nc2cc(Oc3ccc(NC(=O)Nc4cc(C(C)(C)C)cc(NS(C)(=O)=O)c4OC)c4ccccc34)ccn2)ccc1C(=O)NCCN1CCC(F)(F)CC1` [17(al), 4-[[4-[[4-[[5-tert-butyl-3-(methanesulfonamido)-2-methoxy-phenyl]carbamoylamino]-1-naphthyl]oxy]-2-pyridyl]amino]-N-[2-(4,4-difluoro-1-piperidyl)ethyl]-2-methoxy-benzamide] displayed an inhibition at 5 µg/mL of 21.2%.
The compound `COc1c(NC(=O)Nc2ccc(Oc3ccnc(Nc4ccc(C(=O)NCCN5CCOCC5)cc4)c3)c3ccccc23)cc(C(C)(C)C)cc1NS(C)(=O)=O` [17(u), 4-[[4-[[4-[[5-tert-butyl-3-(methanesulfonamido)-2-methoxy-phenyl]carbamoylamino]-1-naphthyl]oxy]-2-pyridyl]amino]-N-(2-morpholinoethyl)benzamide] registered an inhibition at 5 µg/mL in series [4] of 86.9%.
Take `COc1cc(Nc2cc(Oc3ccc(NC(=O)Nc4cc(C(C)(C)C)cc(NS(C)(=O)=O)c4OC)c4ccccc34)ccn2)ccc1C(=O)NCCCCN1CCOCC1` [17(y), 4-[[4-[[4-[[5-tert-butyl-3-(methanesulfonamido)-2-methoxy-phenyl]carbamoylamino]-1-naphthyl]oxy]-2-pyridyl]amino]-2-methoxy-N-(4-morpholinobutyl)benzamide]: the inhibition at 5 µg/mL in series [4] is 70.8%.
Turning to `COc1cc(Nc2cc(Oc3ccc(NC(=O)Nc4cc(C(C)(C)C)cc(NS(C)(=O)=O)c4OC)c4ccccc34)ccn2)ccc1C(=O)NCCN1CCCOCC1` [17(ai), 4-[[4-[[4-[[5-tert-butyl-3-(methanesulfonamido)-2-methoxy-phenyl]carbamoylamino]-1-naphthyl]oxy]-2-pyridyl]amino]-2-methoxy-N-[2-(1,4-oxazepan-4-yl)ethyl]benzamide], the IC50 in series [2] stood at 0.014 µM; in series [3] it was 0.086 µM. The inhibition at 5 µg/mL in series [4] was found to be 89.1%.
Turning to `COc1cc(Nc2cc(Oc3ccc(NC(=O)Nc4cc(C(C)(C)C)cc(NS(C)(=O)=O)c4OC)c4ccccc34)ccn2)cc(OC)c1C(=O)NCCN(C)C` [Example 39, 4-((4-((4-(3-(5-(tert-Butyl)-2-methoxy-3-(methylsulfonamido)phenyl)ureido)naphthalen-1-yl)oxy)pyridin-2-yl)amino)-N-(2-(dimethylamino)ethyl)-2,6-dimethoxybenzamide], the IC50 is 0.006 µM in series [1], 0.017 µM in series [2] and 0.257 µM in series [3]. The “% Viability at 1 μg/mL” value in series [5] is on record as 93.9%. The “% Viability at 5 μg/mL” value in series [5] was determined as 87.7%. Besides, the “% Viability at 20 μg/mL” value in series [5] was 1.5%.
In series [4], `COc1cc(Nc2cc(Oc3ccc(NC(=O)Nc4cc(C(C)(C)C)cc(NS(C)(=O)=O)c4OC)c4ccccc34)ccn2)ccc1C(=O)NCCN1CCN(CCO)CC1` [17(z), 4-[[4-[[4-[[5-tert-butyl-3-(methanesulfonamido)-2-methoxy-phenyl]carbamoylamino]-1-naphthyl]oxy]-2-pyridyl]amino]-N-[2-[4-(2-hydroxyethyl)piperazin-1-yl]ethyl]-2-methoxy-benzamide] showed an inhibition at 5 µg/mL of 69.7%. In series [5], the “% Viability at 1 μg/mL” value is reported as 102.9%, the “% Viability at 5 μg/mL” value is 70.9% and the “% Viability at 20 μg/mL” value came out at 2.0%.
In series [2], `COc1cc(Nc2cc(Oc3ccc(NC(=O)Nc4cc(C(C)(C)C)cc(NS(C)(=O)=O)c4OC)c4ccccc34)ccn2)ccc1C(=O)NCC1CCN(C)CC1` [17(ak), 4-[[4-[[4-[[5-tert-butyl-3-(methanesulfonamido)-2-methoxy-phenyl]carbamoylamino]-1-naphthyl]oxy]-2-pyridyl]amino]-2-methoxy-N-[(1-methyl-4-piperidyl)methyl]benzamide] had an IC50 of 0.012 µM. In series [3], this compound showed an IC50 of 0.085 µM. In series [4], this compound showed an inhibition at 5 µg/mL of 74.7%. In series [5], the “% Viability at 1 μg/mL” value came out at 99.0%, the “% Viability at 5 μg/mL” value came to 69.5% and the “% Viability at 20 μg/mL” value is reported as 0.4%.
For the compound `COc1cc(Nc2cc(Oc3ccc(NC(=O)Nc4cc(C(C)(C)C)cc(N(CCO)S(C)(=O)=O)c4OC)c4ccccc34)ccn2)ccc1C(=O)NCCN1CC[S+]([O-])CC1` [Example 48, 4-((4-((4-(3-(5-(tert-Butyl)-3-(N-(2-hydroxyethyl)methylsulfonamido)-2-methoxyphenyl)-ureido)naphthalen-1-yl)oxy)pyridin-2-yl)amino)-2-methoxy-N-(2-(1-oxidothiomorpholino)-ethyl)benzamide], the IC50 came to 0.029 µM in series [1], 0.02 µM in series [2] and 0.055 µM in series [3]. Further, in series [5], the “% Viability at 1 μg/mL” value worked out at 89.0%. For the same compound, the “% Viability at 5 μg/mL” value in series [5] amounted to 63.8%. Further, the “% Viability at 20 μg/mL” value in series [5] came to 54.2%.

Values taken from patent US10125100B2, “Kinase inhibitors” (Respivert Limited, priority 2014, dated 2018).
